Measured values as given in ChEMBL document CHEMBL6074685, “Design, synthesis and biological evaluation of novel diaryl-substituted fused nitrogen heterocycles as tubulin polymerization inhibitors to overcome multidrug resistance in vitro and in vivo” (Eur J Med Chem, 2025).
pIC50: −log10 of the molar value. The source made the active and inactive calls. The rule behind the calls is not given here.

Tests used:
A549/TR [1] = experiment: Effect on p-gp expression in human A549/T cell by immunoblotting analysis; assay type: functional, cell-based
[2] = Toxicity in BALB/c mouse implanted with human A549/T cell assessed as Plate-letocrit at 15 mg/kg, ip administered every 2 days and measured after 2 weeks (reference value: 0.549%); assay type: organism-based; settings: in vivo, 336 h
A549 [3] = experiment: Induction of cell cycle arrest in human A549 cells assessed as accumulation of cells at G2/M phase by RNAse A/PI-staining based flow cytometric analysis; assay type: functional; settings: dose 25-100 nM
[4] = Toxicity in BALB/c mouse implanted with human A549/T cell assessed as MCHC level at 15 mg/kg, ip administered every 2 days and measured after 2 weeks (reference value: 570 g/L); assay type: organism-based; settings: in vivo, 336 h
A549 [5] = experiment: Induction of apoptosis in human A549 cells at 100 nM incubated for 48 hrs by V-FITC/PI staining based flow cytometry analysis relative to control; assay type: functional
[6] = Toxicity in BALB/c mouse implanted with human A549/T cell assessed as monocyte count at 30 mg/kg, ip administered every 2 days and measured after 2 weeks (reference value: 30.6 %); assay type: organism-based; settings: in vivo, 336 h
Tubulin (Homo sapiens) [7] = molecular target: T1, Tubulin (Homo sapiens) (UniProt P68371+Q9H4B7+P0DPH7+P68366+Q13509+Q71U36+P04350+Q3ZCM7+P07437+P68363+Q9BQE3+Q6PEY2+Q13885+Q9BVA1+Q9BUF5); experiment: Disruption of microtubule network in human A549/T cell at 100 to 200 nM incubated for 24 hrs by immunofluorescence staining based confocal microscopy analysis; settings: dose 100-200 nM
[8] = Toxicity in BALB/c mouse implanted with human A549/T cell assessed as mean platelet volume at 15 mg/kg, ip administered every 2 days and measured after 2 weeks (reference value: 10.1 fL); assay type: organism-based; settings: in vivo, 336 h
[9] = Metabolic stability in human liver microsome assessed as half life measured upto 50 mins by LC-MS/MS analysis; assay type: ADME; settings: liver microsomes
[10] = Toxicity in BALB/c mouse implanted with human A549/T cell assessed as MCH level at 15 mg/kg, ip administered every 2 days and measured after 2 weeks (reference value: 29.2 pg); assay type: organism-based; settings: in vivo, 336 h
[11] = Metabolic stability in mouse liver microsome assessed as half life measured upto 50 mins by LC-MS/MS analysis; assay type: ADME; settings: liver microsomes
A549 [12] = experiment: Effect on p-gp expression in human A549 cells by immunoblotting analysis; assay type: functional, cell-based
[13] = (§1) Inhibition of pig brain tubulin polymerization measured upto 20 mins by absorbance based assay; design: species or system Sus scrofa
Sus scrofa = species on record: Sus scrofa; experiment: as §1; settings: dose 0.4-12 µM
[14] = Toxicity in BALB/c mouse implanted with human A549/T cell assessed as RBC count at 30 mg/kg, ip administered every 2 days and measured after 2 weeks (reference value: 7.92 10^12/L); assay type: organism-based; settings: in vivo, 336 h
[15] = Toxicity in BALB/c mouse implanted with human A549/T cell assessed as WBC count at 30 mg/kg, ip administered every 2 days and measured after 2 weeks (reference value: 1.3 10^9/L); assay type: organism-based; settings: in vivo, 336 h
A549 [16] = experiment: Induction of apoptosis in human A549 cells at 50 nM incubated for 48 hrs by V-FITC/PI staining based flow cytometry analysis relative to control; assay type: functional
A549/TR [17] = experiment: Effect on P-gp protein level in human A549/T cell at 62.5 to 500 nM measured at 12 hrs by immunoblotting analysis; assay type: functional, cell-based; settings: dose 62.5-500 nM
[18] = Toxicity in BALB/c mouse implanted with human A549/T cell assessed as platelet count at 30 mg/kg, ip administered every 2 days and measured after 2 weeks (reference value: 539 […]); assay type: organism-based; settings: in vivo, 336 h
[19] = Metabolic stability in mouse liver microsome assessed as intrinsic clearance measured upto 50 mins by LC-MS/MS analysis; assay type: ADME; settings: liver microsomes, read-out: CLH
[20] = Toxicity in BALB/c mouse implanted with human A549/T cell assessed as platelet distribution width at 15 mg/kg, ip administered every 2 days and measured after 2 weeks (reference value: 15.3 fL); assay type: organism-based; settings: in vivo, 336 h
[21] = Cytotoxicity against human MCF-10A cells assessed as inhibition of cell growth at 10 nM incubated for 48 hrs by MTT assay relative to control; assay type: toxicity, cell-based
Tubulin (Homo sapiens) [22] = molecular target: T1, Tubulin (Homo sapiens); experiment: Disruption of microtubule network in human A549/T cell assessed as change in microtubule morphology at 100 to 200 nM incubated for 24 hrs by immunofluorescence staining based confocal microscopy analysis; settings: dose 100-200 nM
A549/TR [23] = experiment: Inhibition of colony formation in human A549/T cell incubated for 48 hrs by crystal violet staining based analysis; assay type: functional; settings: dose 0.1-0.5 µM
[24] = Toxicity in BALB/c mouse implanted with human A549/T cell assessed as liver damage at 15 to 30 mg/kg, ip administered every 2 days by H and E staining based analysis; assay type: organism-based; settings: in vivo, 48 h, dose 15-30 mg/kg, time 2 day
[25] = Toxicity in BALB/c mouse implanted with human A549/T cell assessed as RBC count at 15 mg/kg, ip administered every 2 days and measured after 2 weeks (reference value: 7.92 10^12/L); assay type: organism-based; settings: in vivo, 336 h
[26] = Toxicity in BALB/c mouse implanted with human A549/T cell assessed as lung damage at 15 to 30 mg/kg, ip administered every 2 days by H and E staining based analysis; assay type: organism-based; settings: in vivo, 48 h, dose 15-30 mg/kg, time 2 day
[27] = Toxicity in BALB/c mouse implanted with human A549/T cell assessed as kidney damage at 15 to 30 mg/kg, ip administered every 2 days by H and E staining based analysis; assay type: organism-based; settings: in vivo, 48 h, dose 15-30 mg/kg, time 2 day
[28] = Toxicity in BALB/c mouse implanted with human A549/T cell assessed as red blood cell distribution width-cell volume at 15 mg/kg, ip administered every 2 days and measured after 2 weeks (reference value: 25fL); assay type: organism-based; settings: in vivo, 336 h
[29] = Toxicity in BALB/c mouse implanted with human A549/T cell assessed as platelet count at 15 mg/kg, ip administered every 2 days and measured after 2 weeks (reference value: 539 […]); assay type: organism-based; settings: in vivo, 336 h
[30] = Toxicity in BALB/c mouse implanted with human A549/T cell assessed as red blood cell distribution width-cell volume at 30 mg/kg, ip administered every 2 days and measured after 2 weeks (reference value: 25fL); assay type: organism-based; settings: in vivo, 336 h

Activity (Tubulin (Homo sapiens) [7]): Active
half-life [9]: 75 min
half-life [11]: 63 min
pIC50 [13]: 5.74
inhibition (Sus scrofa): Dose-dependent-effect
CLint scaled [19]: 87 mL/min/kg
Activity (Tubulin (Homo sapiens) [22]): Active
Compound: COc1ccc(-c2cc(-c3ccc(OC)c(OC)c3OC)c3nc[nH]c3c2)cc1N
Activity (A549/TR [1]): Active
Activity [2]: 0.531%
Activity (A549 [3]): Dose-dependent-effect
Activity [4]: 589 g/L
Activity (A549 [5]): 44.42%
Activity [6]: 23.4%
Activity [8]: 10.5 fL
Activity [10]: 28.9 pg
Activity (A549 [12]): inactive
Activity [14]: 5.94 10^12/L
Activity [15]: 2.4 10^9/L
Activity (A549 [16]): 34.2%
Activity (A549/TR [17]): inactive
Activity [18]: 415 10^9/L
Activity [20]: 17.9 fL
inhibition at 48 h, 0.01 µM [21]: 20%
inhibition (A549/TR [23]): Dose-dependent-effect
Activity [24]: Non-toxic
Activity [25]: 7.43 10^12/L
Activity [26]: Non-toxic
Activity [27]: Non-toxic
Activity [28]: 24 fL
Activity [29]: 505 10^9/L
Activity [30]: 25 fL
